{"source": "ChEMBL document CHEMBL1201862", "about": "“PubChem BioAssay data set” (2004)", "experiment_in_all_cases": "DTP human tumour cell line panel, 48 h", "key": {"UACC-257": {"tested_on": "UACC-257"}, "T47D": {"tested_on": "T47D"}, "RXF 393": {"tested_on": "RXF 393"}, "M14": {"tested_on": "M14"}, "A498": {"tested_on": "A498"}, "SNB-75": {"tested_on": "SNB-75"}, "BT-549": {"tested_on": "BT-549"}, "HCC 2998": {"tested_on": "HCC 2998"}, "NCI-H23": {"tested_on": "NCI-H23"}, "SW-620": {"tested_on": "SW-620"}, "786-0": {"tested_on": "786-0"}, "NCI-H522": {"tested_on": "NCI-H522"}, "SF-295": {"tested_on": "SF-295"}, "SF-268": {"tested_on": "SF-268"}, "MOLT-4": {"tested_on": "MOLT-4"}, "ACHN": {"tested_on": "ACHN"}, "DU-145": {"tested_on": "DU-145"}, "SK-MEL-2": {"tested_on": "SK-MEL-2"}, "MDA-MB-435": {"tested_on": "MDA-MB-435"}}, "note": "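Cells were grown in 96-well plates and exposed to each compound for 48 hours at five concentrations; endpoints were interpolated linearly between bracketing concentrations, or set to the highest concentration if not reached. The concentration for 50% growth inhibition is given as GI50.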 Active and inactive are the calls of the source. Cut-off read from the data, not from the text of the source: active = GI50 up to about 1.1 µM and inactive = higher."}
{"smiles": "CN(C)c1ccc2c(c1)oc(=O)c1ccccc12", "values": [{"measurement": "GI50", "setting": "UACC-257", "result": "14.4 µM (inactive)"}, {"measurement": "GI50", "setting": "T47D", "result": "12.2 µM (inactive)"}, {"measurement": "GI50", "setting": "RXF 393", "result": "5.4 µM (inactive)"}, {"measurement": "GI50", "setting": "M14", "result": "13 µM (inactive)"}, {"measurement": "GI50", "setting": "A498", "result": "15.8 µM (inactive)"}, {"measurement": "GI50", "setting": "SNB-75", "result": "17.8 µM (inactive)"}, {"measurement": "GI50", "setting": "BT-549", "result": "3.44 µM (inactive)"}, {"measurement": "GI50", "setting": "HCC 2998", "result": "14.9 µM (inactive)"}, {"measurement": "GI50", "setting": "NCI-H23", "result": "8.05 µM (inactive)"}, {"measurement": "GI50", "setting": "SW-620", "result": "11.4 µM (inactive)"}, {"measurement": "GI50", "setting": "786-0", "result": "11.9 µM (inactive)"}, {"measurement": "GI50", "setting": "NCI-H522", "result": "8.36 µM (inactive)"}, {"measurement": "GI50", "setting": "SF-295", "result": "19.1 µM (inactive)"}, {"measurement": "GI50", "setting": "SF-268", "result": "10.4 µM (inactive)"}, {"measurement": "GI50", "setting": "MOLT-4", "result": "16.9 µM (inactive)"}, {"measurement": "GI50", "setting": "ACHN", "result": "18.5 µM (inactive)"}, {"measurement": "GI50", "setting": "DU-145", "result": "10.7 µM (inactive)"}, {"measurement": "GI50", "setting": "SK-MEL-2", "result": "6.24 µM (inactive)"}, {"measurement": "GI50", "setting": "MDA-MB-435", "result": "9.31 µM (inactive)"}]}
{"smiles": "CCCCCCCCCCCCNC(=O)NCC(OCC)OCC", "values": [{"measurement": "GI50", "setting": "UACC-257", "result": "> 10 µM (inactive)"}, {"measurement": "GI50", "setting": "T47D", "result": "> 10 µM (inactive)"}, {"measurement": "GI50", "setting": "RXF 393", "result": "> 10 µM (inactive)"}, {"measurement": "GI50", "setting": "M14", "result": "> 10 µM (inactive)"}, {"measurement": "GI50", "setting": "A498", "result": "> 10 µM (inactive)"}, {"measurement": "GI50", "setting": "SNB-75", "result": "> 10 µM (inactive)"}, {"measurement": "GI50", "setting": "BT-549", "result": "> 10 µM (inactive)"}, {"measurement": "GI50", "setting": "HCC 2998", "result": "> 10 µM (inactive)"}, {"measurement": "GI50", "setting": "NCI-H23", "result": "> 10 µM (inactive)"}, {"measurement": "GI50", "setting": "SW-620", "result": "> 10 µM (inactive)"}, {"measurement": "GI50", "setting": "786-0", "result": "> 10 µM (inactive)"}, {"measurement": "GI50", "setting": "NCI-H522", "result": "> 10 µM (inactive)"}, {"measurement": "GI50", "setting": "SF-295", "result": "> 10 µM (inactive)"}, {"measurement": "GI50", "setting": "SF-268", "result": "> 10 µM (inactive)"}, {"measurement": "GI50", "setting": "MOLT-4", "result": "> 10 µM (inactive)"}, {"measurement": "GI50", "setting": "ACHN", "result": "> 10 µM (inactive)"}, {"measurement": "GI50", "setting": "DU-145", "result": "> 10 µM (inactive)"}, {"measurement": "GI50", "setting": "SK-MEL-2", "result": "> 10 µM (inactive)"}, {"measurement": "GI50", "setting": "MDA-MB-435", "result": "> 10 µM (inactive)"}]}
{"smiles": "O=C1N=C(c2ccccc2)O/C1=C\\c1ccccc1", "values": [{"measurement": "GI50", "setting": "UACC-257", "result": "> 100 µM (inactive)"}, {"measurement": "GI50", "setting": "T47D", "result": "> 100 µM (inactive)"}, {"measurement": "GI50", "setting": "RXF 393", "result": "> 100 µM (inactive)"}, {"measurement": "GI50", "setting": "M14", "result": "> 100 µM (inactive)"}, {"measurement": "GI50", "setting": "A498", "result": "> 100 µM (inactive)"}, {"measurement": "GI50", "setting": "SNB-75", "result": "> 100 µM (inactive)"}, {"measurement": "GI50", "setting": "BT-549", "result": "> 100 µM (inactive)"}, {"measurement": "GI50", "setting": "HCC 2998", "result": "> 100 µM (inactive)"}, {"measurement": "GI50", "setting": "NCI-H23", "result": "> 100 µM (inactive)"}, {"measurement": "GI50", "setting": "SW-620", "result": "> 100 µM (inactive)"}, {"measurement": "GI50", "setting": "786-0", "result": "> 100 µM (inactive)"}, {"measurement": "GI50", "setting": "NCI-H522", "result": "> 100 µM (inactive)"}, {"measurement": "GI50", "setting": "SF-295", "result": "> 100 µM (inactive)"}, {"measurement": "GI50", "setting": "SF-268", "result": "> 100 µM (inactive)"}, {"measurement": "GI50", "setting": "MOLT-4", "result": "> 100 µM (inactive)"}, {"measurement": "GI50", "setting": "ACHN", "result": "> 100 µM (inactive)"}, {"measurement": "GI50", "setting": "DU-145", "result": "> 100 µM (inactive)"}, {"measurement": "GI50", "setting": "SK-MEL-2", "result": "> 100 µM (inactive)"}, {"measurement": "GI50", "setting": "MDA-MB-435", "result": "> 100 µM (inactive)"}]}
{"smiles": "C#CC1(O)C(COP(=O)(O)OCC2OC(n3ccc(NCCCCCCCCCCCCCCCCCC)nc3=O)C(O)C2O)OC(n2ccc(N)nc2=O)C1O", "note": "(stereo not given)", "values": [{"measurement": "GI50", "setting": "UACC-257", "result": "4.05 µM (inactive)"}, {"measurement": "GI50", "setting": "T47D", "result": "1.18 µM (inactive)"}, {"measurement": "GI50", "setting": "RXF 393", "result": "4.15 µM (inactive)"}, {"measurement": "GI50", "setting": "M14", "result": "0.254 µM (active)"}, {"measurement": "GI50", "setting": "A498", "result": "3.6 µM (inactive)"}, {"measurement": "GI50", "setting": "SNB-75", "result": "2.67 µM (inactive)"}, {"measurement": "GI50", "setting": "BT-549", "result": "2.73 µM (inactive)"}, {"measurement": "GI50", "setting": "HCC 2998", "result": "0.703 µM (active)"}, {"measurement": "GI50", "setting": "NCI-H23", "result": "3.73 µM (inactive)"}, {"measurement": "GI50", "setting": "SW-620", "result": "0.228 µM (active)"}, {"measurement": "GI50", "setting": "786-0", "result": "4.22 µM (inactive)"}, {"measurement": "GI50", "setting": "NCI-H522", "result": "0.032 µM (active)"}, {"measurement": "GI50", "setting": "SF-295", "result": "0.349 µM (active)"}, {"measurement": "GI50", "setting": "SF-268", "result": "1.34 µM (inactive)"}, {"measurement": "GI50", "setting": "MOLT-4", "result": "0.418 µM (active)"}, {"measurement": "GI50", "setting": "ACHN", "result": "0.175 µM (active)"}, {"measurement": "GI50", "setting": "DU-145", "result": "0.279 µM (active)"}, {"measurement": "GI50", "setting": "SK-MEL-2", "result": "0.67 µM (active)"}, {"measurement": "GI50", "setting": "MDA-MB-435", "result": "0.575 µM (active)"}]}
{"smiles": "CCOC(=O)C(Cc1c2ccccc2cc2ccccc12)(NC(C)=O)C(=O)OCC", "values": [{"measurement": "GI50", "setting": "UACC-257", "result": "> 100 µM (inactive)"}, {"measurement": "GI50", "setting": "T47D", "result": "35.8 µM (inactive)"}, {"measurement": "GI50", "setting": "RXF 393", "result": "42.7 µM (inactive)"}, {"measurement": "GI50", "setting": "M14", "result": "> 75.9 µM (inactive)"}, {"measurement": "GI50", "setting": "A498", "result": "55.5 µM (inactive)"}, {"measurement": "GI50", "setting": "SNB-75", "result": "> 19.8 µM (inactive)"}, {"measurement": "GI50", "setting": "BT-549", "result": "99.8 µM (inactive)"}, {"measurement": "GI50", "setting": "HCC 2998", "result": "> 100 µM (inactive)"}, {"measurement": "GI50", "setting": "NCI-H23", "result": "> 100 µM (inactive)"}, {"measurement": "GI50", "setting": "SW-620", "result": "> 79.8 µM (inactive)"}, {"measurement": "GI50", "setting": "786-0", "result": "76.4 µM (inactive)"}, {"measurement": "GI50", "setting": "NCI-H522", "result": "64 µM (inactive)"}, {"measurement": "GI50", "setting": "SF-295", "result": "> 65.9 µM (inactive)"}, {"measurement": "GI50", "setting": "SF-268", "result": "36.9 µM (inactive)"}, {"measurement": "GI50", "setting": "MOLT-4", "result": "25.8 µM (inactive)"}, {"measurement": "GI50", "setting": "ACHN", "result": "> 63.1 µM (inactive)"}, {"measurement": "GI50", "setting": "DU-145", "result": "> 92.5 µM (inactive)"}, {"measurement": "GI50", "setting": "SK-MEL-2", "result": "> 100 µM (inactive)"}, {"measurement": "GI50", "setting": "MDA-MB-435", "result": "> 72.4 µM (inactive)"}]}
